Values of other authors in PubChem BioAssay AID1259409 (Chemical Carcinogenesis Research Information System (CCRIS), 2018).

System: rodent chemically induced tumor inhibition, incidence and multiplicity
Assay: CCRIS tumor inhibitor studies
Details: Promoter: NONE USED

CCNC(=O)[C@@H]1CCCN1C(=O)[C@H](CCCN=C(N)N)NC(=O)[C@H](CC(C)C)NC(=O)[C@@H](CC(C)C)NC(=O)[C@H](Cc1ccc(O)cc1)NC(=O)[C@H](CO)NC(=O)[C@H](Cc1c[nH]c2ccccc12)NC(=O)[C@H](Cc1cnc[nH]1)NC(=O)[C@@H]1CCC(=O)N1
tumour outcome (control, treated, inhibition, significance) (Carcinogen: N-BUTYL-N-(4-HYDROXYBUTYL)NITROSAMINE, 3817-11-6, Dose [Inhibitor]: 0, 1 MG/KG 1/4 WK FOR 11 WK BEGINNING POST CARCINOGEN TREATMENT (STUDY DURATION: 21 WK), Route [Inhibitor]: SUBCUTANEOUS, Species: RAT, Strain/Sex: WISTAR/MALE, Target Tissue: Type of Lesion: URINARY BLADDER:CARCINOMA, Dose [Carcinogen]: 0.05% IN DRINKING WATER FOR 10 WK): 15/17 (88%), 10/18 (56%), 36%, p<0.05

CC1=C(O)C(=O)C(C)O1 (stereo not drawn)
tumour outcome (control, treated, inhibition, significance) (Carcinogen: BENZO[A]PYRENE, 50-32-8, Dose [Inhibitor]: 0, 25 PPM IN DIET FOR 17 WK BEGINNING 1 WK POST CARCINOGEN TREATMENT (STUDY DURATION: 21 WK), Route [Inhibitor]: ORAL, Species: MOUSE, Strain/Sex: ICR/FEMALE, Target Tissue: Type of Lesion: FORESTOMACH: TUMOR, Dose [Carcinogen]: 1.5 MG IN 0.2 ML CORN OIL 1/WK FOR 4 WK): 90%, 74%, 18%, not significant
tumour outcome (control, treated, inhibition, significance) (Carcinogen: BENZO[A]PYRENE, 50-32-8, Dose [Inhibitor]: 0, 50 PPM IN DIET FOR 17 WK BEGINNING 1 WK POST CARCINOGEN TREATMENT (STUDY DURATION: 21 WK), Route [Inhibitor]: ORAL, Species: MOUSE, Strain/Sex: ICR/FEMALE, Target Tissue: Type of Lesion: FORESTOMACH: TUMOR, Dose [Carcinogen]: 1.5 MG IN 0.2 ML CORN OIL 1/WK FOR 4 WK): 90%, 72%, 20%, p<0.1
tumour outcome (control, treated, inhibition, significance) (Carcinogen: BENZO[A]PYRENE, 50-32-8, Dose [Inhibitor]: 0, 75 PPM IN DIET FOR 17 WK BEGINNING 1 WK POST CARCINOGEN TREATMENT (STUDY DURATION: 21 WK), Route [Inhibitor]: ORAL, Species: MOUSE, Strain/Sex: ICR/FEMALE, Target Tissue: Type of Lesion: FORESTOMACH: TUMOR, Dose [Carcinogen]: 1.5 MG IN 0.2 ML CORN OIL 1/WK FOR 4 WK): 90%, 62%, 31%, p<0.05

O=[Se]=O
tumour outcome (control, treated, inhibition, significance) (Carcinogen: N-2-FLUORENYLACETMIDE, 53-96-3, Dose [Inhibitor]: 0.1 PPM IN DIET DAILY STARTING SIMULTANEOUSLY WITH CARCINOGEN TREATMENT AT AGE 35 D AND CONTINUING FOR DURATION OF STUDY, Route [Inhibitor]: ORAL, Species: RAT, Strain/Sex: OSU-BROWN/FEMALE, Target Tissue: Type of Lesion: LIVER: HEPATOMA, Dose [Carcinogen]: 150 PPM IN DIET DAILY FOR DURATION OF STUDY): 85%, 100%, -18%, not calculated
tumour outcome (control, treated, inhibition, significance) (Carcinogen: N-2-FLUORENYLACETMIDE, 53-96-3, Dose [Inhibitor]: 0.1 PPM IN DIET DAILY STARTING SIMULTANEOUSLY WITH CARCINOGEN TREATMENT AT AGE 35 D AND CONTINUING FOR DURATION OF STUDY, Route [Inhibitor]: ORAL, Species: RAT, Strain/Sex: OSU-BROWN/FEMALE, Target Tissue: Type of Lesion: MAMMARY GLAND: ADENOCARCINOMA, Dose [Carcinogen]: 150 PPM IN DIET DAILY FOR DURATION OF STUDY): 94%, 100%, -6%, not calculated
tumour outcome (control, treated, inhibition, significance) (Carcinogen: N-2-FLUORENYLACETMIDE, 53-96-3, Dose [Inhibitor]: 0.5 PPM IN DIET DAILY STARTING SIMULTANEOUSLY WITH CARCINOGEN TREATMENT AT AGE 35 D AND CONTINUING FOR DURATION OF STUDY, Route [Inhibitor]: ORAL, Species: RAT, Strain/Sex: OSU-BROWN/FEMALE, Target Tissue: Type of Lesion: LIVER: HEPATOMA, Dose [Carcinogen]: 150 PPM IN DIET DAILY FOR DURATION OF STUDY): 85%, 80%, 6%, not calculated
tumour outcome (control, treated, inhibition, significance) (Carcinogen: N-2-FLUORENYLACETMIDE, 53-96-3, Dose [Inhibitor]: 0.5 PPM IN DIET DAILY STARTING SIMULTANEOUSLY WITH CARCINOGEN TREATMENT AT AGE 35 D AND CONTINUING FOR DURATION OF STUDY, Route [Inhibitor]: ORAL, Species: RAT, Strain/Sex: OSU-BROWN/FEMALE, Target Tissue: Type of Lesion: MAMMARY GLAND: ADENOCARCINOMA, Dose [Carcinogen]: 150 PPM IN DIET DAILY FOR DURATION OF STUDY): 94%, 85%, 10%, not calculated
tumour outcome (control, treated, inhibition, significance) (Carcinogen: N-2-FLUORENYLACETMIDE, 53-96-3, Dose [Inhibitor]: 2.5 PPM IN DIET DAILY STARTING SIMULTANEOUSLY WITH CARCINOGEN TREATMENT AT AGE 35 D AND CONTINUING FOR DURATION OF STUDY, Route [Inhibitor]: ORAL, Species: RAT, Strain/Sex: OSU-BROWN/FEMALE, Target Tissue: Type of Lesion: LIVER: HEPATOMA, Dose [Carcinogen]: 150 PPM IN DIET DAILY FOR DURATION OF STUDY): 85%, 50%, 41%, not calculated
tumour outcome (control, treated, inhibition, significance) (Carcinogen: N-2-FLUORENYLACETMIDE, 53-96-3, Dose [Inhibitor]: 2.5 PPM IN DIET DAILY STARTING SIMULTANEOUSLY WITH CARCINOGEN TREATMENT AT AGE 35 D AND CONTINUING FOR DURATION OF STUDY, Route [Inhibitor]: ORAL, Species: RAT, Strain/Sex: OSU-BROWN/FEMALE, Target Tissue: Type of Lesion: MAMMARY GLAND: ADENOCARCINOMA, Dose [Carcinogen]: 150 PPM IN DIET DAILY FOR DURATION OF STUDY): 94%, 68%, 28%, not calculated
tumour outcome (control, treated, inhibition, significance) (Carcinogen: NONE USED, Dose [Inhibitor]: 0.1 PPM IN DRINKING WATER DAILY FOR 22 MO STARTING AT AGE 2 MO AND CONTINUING FOR DURATION OF STUDY (STUDY DURATION: 22, Route [Inhibitor]: ORAL, Species: MOUSE, Strain/Sex: C3H/FEMALE, Target Tissue: Type of Lesion: MAMMARY GLAND: ADENOCARCINOMA): 42%, 25%, 40%, not calculated
tumour outcome (control, treated, inhibition, significance) (Carcinogen: NONE USED, Dose [Inhibitor]: 0.5 PPM IN DRINKING WATER DAILY FOR 22 MO STARTING AT AGE 2 MO AND CONTINUING FOR DURATION OF STUDY (STUDY DURATION: 22, Route [Inhibitor]: ORAL, Species: MOUSE, Strain/Sex: C3H/FEMALE, Target Tissue: Type of Lesion: MAMMARY GLAND: ADENOCARCINOMA): 42%, 19%, 55%, not calculated
tumour outcome (control, treated, inhibition, significance) (Carcinogen: NONE USED, Dose [Inhibitor]: 1 PPM IN DRINKING WATER DAILY FOR 22 MO STARTING AT AGE 2 MO AND CONTINUING FOR DURATION OF STUDY (STUDY DURATION: 22 MO, Route [Inhibitor]: ORAL, Species: MOUSE, Strain/Sex: C3H/FEMALE, Target Tissue: Type of Lesion: MAMMARY GLAND: ADENOCARCINOMA): 42%, 10%, 76%, not calculated
tumour outcome (control, treated, inhibition, significance) (Carcinogen: NONE USED, Dose [Inhibitor]: 2 PPM IN DRINKING WATER DAILY FOR DURATION OF STUDY (STUDY DURATION: 16 MO), Route [Inhibitor]: ORAL, Species: MOUSE, Strain/Sex: C3H/FEMALE, Target Tissue: Type of Lesion: MAMMARY GLAND: ADENOCARCINOMA): 82%, 10%, 88%, not calculated
tumour outcome (control, treated, inhibition, significance) (Carcinogen: NONE USED, Dose [Inhibitor]: 5 PPM IN DRINKING WATER DAILY STARTING AT AGE 1 MO AND CONTINUING FOR LIFE (STUDY DURATION: LIFE), Route [Inhibitor]: ORAL, Species: MOUSE, Strain/Sex: C3H/FEMALE, Target Tissue: Type of Lesion: MAMMARY GLAND: TUMOR): 82%, 36%, 56%, p<0.005
tumour outcome (control, treated, inhibition, significance) (Carcinogen: NONE USED, Dose [Inhibitor]: 15 PPM IN DRINKING WATER DAILY STARTING AT AGE 1 MO AND CONTINUING FOR LIFE (STUDY DURATION: LIFE), Route [Inhibitor]: ORAL, Species: MOUSE, Strain/Sex: C3H/FEMALE, Target Tissue: Type of Lesion: MAMMARY GLAND: TUMOR): 82%, 33%, 60%, p<0.005

[Mo].[Na+].[Na+].[O-2].[O-2].[O-2].[O-2]
tumour outcome (control, treated, inhibition, significance) (Carcinogen: N-METHYL-N-BENZYLNITROSAMINE, 937-40-6, Dose [Inhibitor]: 0.32 (BASAL MOLYBDENUM LEVEL), 2 PPM (HIGH MOLYBDENUM LEVEL) IN DIET BEGINNING 4 WK PRIOR TO CARCINOGEN DOSE AND CONTINU, Route [Inhibitor]: ORAL, Species: RAT, Strain/Sex: F344/MALE, Target Tissue: Type of Lesion: ESOPHAGUS: CARCINOMA, Dose [Carcinogen]: 2.5 MG/KG IN 0.2 ML OLIVE OIL 1/WK FOR 20 WK): 30/41 (73%), 20/45 (44%), 40%, p<0.01
tumour outcome (control, treated, inhibition, significance) (Carcinogen: N-METHYL-N-NITROSOUREA, 684-93-5, Dose [Inhibitor]: 20 PPM IN DRINKING WATER CONCURRENTLY WITH THE CARCINOGEN (STUDY DURATION: 56 WK), Route [Inhibitor]: ORAL, Species: RAT, Strain/Sex: BD6/MALE, Target Tissue: Type of Lesion: INTESTINE: ADENOCARCINOMA, Dose [Carcinogen]: 25 MG/KG 2/WK FOR 15 WK): 6/20 (30%), 1/14 (7%), 77%, p>0.05
